What follows are molecules tested on SK-Hep-1 cell lines (a hepatocellular carcinoma (HCC) cell) (assay: MTT assay, growth inhibition of SK-Hep-1 cells). Conditions: Homo sapiens, SK-HEP1, 48 h, SK-Hep-1 cells, 48 hours.
Format: cell-based
Method: MTT assay was used to measure growth inhibition. […] MTT (3-(4,5-dimethylthiazol-2-yl)-2,5-diphenyl tetrazolium bromide) assay was performed as follow.
(§1) The effect of individual test compounds on cell viability was assessed by using the MTT in 6 replicates. Sk-Hep-1 cells were seeded and incubated in 96-well, flat-bottomed plates for 24 hours, and were exposed to various concentrations of test compounds dissolved in DMSO (final concentration, 0.1%) for 48 hours. Controls received DMSO vehicle at a concentration equal to that in drug-treated cells. The medium was removed, replaced by 200 μL of 0.5 mg/mL MTT in 10% fetal bovine serum containing DMEM (Dulbecco's Modified Eagle Medium), and cells were incubated in the carbon dioxide incubator at 37° C. for 2 hours. Supernatants were removed from the wells and the reduced MTT dye was solubilized in 100 μL/well DMSO. Absorbance at 570 nm was determined on a plate reader.
The SK-Hep1 cells were then analyzed with western blot assay and MTT assay.
With `C#Cc1cccc(Nc2ccnc(Cl)n2)c1` [Compound 1, 2-Chloro-N-(3-ethynylphenyl)pyrimidin-4-amine] the IC50 was > 40 µM.
For `Clc1cccc(Nc2ccnc(Cl)n2)c1` [Compound 2, 2-Chloro-N-(3-chlorophenyl)pyrimidin-4-amine], the IC50 was > 40 µM.
For `FC(F)(F)c1cc(Nc2ccnc(Cl)n2)ccc1Cl` [Compound 3, 2-Chloro-N-(4-chloro-3-(trifluoromethyl)phenyl)pyrimidin-4-amine], the IC50 was > 40 µM.
For `Clc1nccc(NCc2ccccc2)n1` [Compound 5, N-Benzyl-2-chloropyrimidin-4-amine], the IC50 was > 40 µM.
With `C#Cc1cccc(Nc2ccnc(Nc3cccc(C#C)c3)n2)c1` [Compound 6, N^2,N^4-Bis(3-ethynylphenyl)pyrimidine-2,4-diamine] the IC50 was < 10 µM.
Work on `FC(F)(F)c1cc(Nc2ccnc(Nc3ccc(Cl)c(C(F)(F)F)c3)n2)ccc1Cl` [Compound 7, N^2,N^4-Bis(4-chloro-3-(trifluoromethyl)phenyl)pyrimidine-2,4-diamine] yielded an IC50 of 10 to 20 µM.
Molecule `C#Cc1cccc(N(C)c2nc(Cl)nc3cc(OC)c(OC)cc23)c1` [Compound 9, 2-Chloro-N-(3-ethynylphenyl)-6,7-dimethoxy-N-methyl quinazoline-4-amine] has an IC50 of 10 to 20 µM.
`COc1cc2nc(Cl)nc(Nc3cccc(Cl)c3)c2cc1OC` [Compound 10, 2-Chloro-N-(3-chlorophenyl)-6,7-dimethoxyquinazoline-4-amine] was tested, and the IC50 was 10 to 20 µM.
With `COc1cc2nc(Cl)nc(Nc3cccc(O)c3)c2cc1OC` [Compound 11, 3-(2-Chloro-6,7-dimethoxyquinazoline-4-ylamino)phenol] the IC50 was > 40 µM.
For `COc1cc2nc(Cl)nc(Nc3cc(C)ccc3F)c2cc1OC` [Compound 12, 2-Chloro-N-(2-fluoro-5-methylphenyl)-6,7-dimethoxy quinazoline-4-amine], the IC50 was > 40 µM.
`COc1cc2nc(Cl)nc(Nc3ccc(Oc4ccccc4)cc3)c2cc1OC` [Compound 14, 2-Chloro-6,7-dimethoxy-N-(4-phenoxyphenyl)quinazoline-4-amine] was tested, and the IC50 was 10 to 20 µM.
In the case of `COc1cc2nc(Cl)nc(Nc3ccc(O)cc3C)c2cc1OC` [Compound 15, 4-(2-Chloro-6,7-dimethoxyquinazoline-4-ylamino)-3-methylphenol], the IC50 is reported as > 40 µM.
For `COc1cc2nc(Cl)nc(Nc3cccc(Oc4ccc(C#N)cc4)c3)c2cc1OC` [Compound 16, 4-(3-(2-Chloro-6,7-dimethoxyquinazoline-4-ylamino)phenoxy)benzonitrile], the IC50 was > 40 µM.
`COc1cc2nc(Cl)nc(NCc3ccccc3)c2cc1OC` [Compound 17, N-Benzyl-2-chloro-6,7-dimethoxyquinazoline-4-amine] gave an IC50 of 10 to 20 µM.
In the case of `C#Cc1cccc(Nc2nc(Nc3ccc(Cl)c(C(F)(F)F)c3)nc3cc(OC)c(OC)cc23)c1` [Compound 18, N^2-(4-Chloro-3-(trifluoromethyl)phenyl)-N^4-(3-ethynylphenyl)-6,7-dimethoxy-quinazoline-2,4-diamine], the IC50 is reported as < 10 µM.
With `C#Cc1cccc(Nc2nc(Nc3cccc(Cl)c3)nc3cc(OC)c(OC)cc23)c1` [Compound 20, N^2-(3-Chlorophenyl)-N^4-(3-ethynylphenyl)-6,7-dimethoxy quinazoline-2,4-diamine] the IC50 was < 10 µM.
Work on `C#Cc1cccc(Nc2nc(Nc3ccc(Oc4ccc(C#N)cc4)cc3)nc3cc(OC)c(OC)cc23)c1` [Compound 24, 4-(4-(4-(3-Ethynylphenylamino)-6,7-dimethoxyquinazolin-2-ylamino)phenoxy)benzonitrile] yielded an IC50 of 10 to 20 µM.
For `C#Cc1cccc(Nc2nc(Nc3cccc(C#C)c3)c3cc(OC)c(OC)cc3n2)c1` [Compound 25, N^2,N^4-Bis(3-ethynylphenyl)-6,7-dimethoxyquinazoline-2,4-diamine], the IC50 was < 10 µM.
In the case of `C#Cc1cccc(Nc2nc(Nc3cccc(CC)c3)nc3cc(OC)c(OC)cc23)c1` [Compound 26, N^2-(3-ethylphenyl)-N^4-(3-ethynylphenyl)-6,7-dimethoxy quinazoline-2,4-diamine], the IC50 is reported as < 10 µM.
With `C#Cc1cccc(Nc2nc(NCc3ccc(OC)c(OC)c3)nc3cc(OC)c(OC)cc23)c1` [Compound 29, N^2-(3,4-dimethoxybenzyl)-N^4-(3-ethynylphenyl)-6,7-dimethoxyquinazoline-2,4-diamine] the IC50 was < 10 µM.
For `C#Cc1cccc(Nc2nc(Nc3cccc(NS(=O)(=O)c4ccccc4)c3)nc3cc(OC)c(OC)cc23)c1` [Compound 30, N-(3-(4-(3-ethynylphenylamino)-6,7-dimethoxyquinazolin-2-ylamino)phenyl)benzenesulfonamide], the IC50 was < 10 µM.
With `C#Cc1cccc(Nc2nc(Nc3cccc(NS(=O)(=O)c4ccc(C(F)(F)F)cc4Br)c3)nc3cc(OC)c(OC)cc23)c1` [Compound 32, 2-Bromo-N-(3-(4-(3-ethynylphenylamino)-6,7-dimethoxyquinazolin-2-ylamino)phenyl)-4-(trifluoromethyl)benzenesulfonamide] the IC50 was < 10 µM.

Same assay, conditions: SK-Hep-1 (HCC) cells
`C#Cc1cccc(Nc2ccnc(Nc3cccc(C#C)c3)n2)c1` [Compound 6, N^2,N^4-Bis(3-ethynylphenyl)pyrimidine-2,4-diamine] was tested, and the “growth-inhibitory activity (MTT), in words” value was “more potent anti-tumor activity than the mono-substituted pyrimidine derivatives”.
`FC(F)(F)c1cc(Nc2ccnc(Nc3ccc(Cl)c(C(F)(F)F)c3)n2)ccc1Cl` [Compound 7, N^2,N^4-Bis(4-chloro-3-(trifluoromethyl)phenyl)pyrimidine-2,4-diamine] was tested, and the “growth-inhibitory activity (MTT), in words” value was “more potent anti-tumor activity than the mono-substituted pyrimidine derivatives”.

Same assay, conditions: SK-Hep-1 cells, 48 hours
Molecule `C#Cc1cccc(N(C)c2nc(Cl)nc3cc(OC)c(OC)cc23)c1` [Compound 9, 2-Chloro-N-(3-ethynylphenyl)-6,7-dimethoxy-N-methyl quinazoline-4-amine] has an IC50 of 12.3 ± 0.6 µM.
Molecule `COc1cc2nc(Cl)nc(Nc3ccc(Oc4ccccc4)cc3)c2cc1OC` [Compound 14, 2-Chloro-6,7-dimethoxy-N-(4-phenoxyphenyl)quinazoline-4-amine] has an IC50 of 15.3 ± 0.6 µM.
`C#Cc1cccc(Nc2nc(Nc3cccc(Oc4ccc(C#N)cc4)c3)nc3cc(OC)c(OC)cc23)c1` [Compound 23, 4-(3-(4-(3-Ethynylphenylamino)-6,7-dimethoxyquinazolin-2-ylamino)phenoxy)benzonitrile] showed an IC50 of 3.9 µM.
`C#Cc1cccc(Nc2nc(Nc3ccc(Oc4ccc(C#N)cc4)cc3)nc3cc(OC)c(OC)cc23)c1` [Compound 24, 4-(4-(4-(3-Ethynylphenylamino)-6,7-dimethoxyquinazolin-2-ylamino)phenoxy)benzonitrile] was tested, and the IC50 was 14.5 µM.
For `C#Cc1cccc(Nc2nc(NCc3ccc(Cl)c(C(F)(F)F)c3)nc3cc(OC)c(OC)cc23)c1` [Compound 27, N^2-(4-Chloro-3-(trifluoromethyl)benzyl)-N^4-(3-ethynylphenyl)-6,7-dimethoxyquinazoline-2,4-diamine], the IC50 was 2.6 µM.
With `C#Cc1cccc(Nc2nc(NCc3cccc(OC(F)(F)F)c3)nc3cc(OC)c(OC)cc23)c1` [Compound 28, N^4-(3-Ethynylphenyl)-6,7-dimethoxy-N^2-(3-(trifluoromethoxy)benzyl)quinazoline-2,4-diamine] the IC50 was 2.55 µM.
`C#Cc1cccc(Nc2nc(Nc3cccc(NS(=O)(=O)c4cccc(C(F)(F)F)c4)c3)nc3cc(OC)c(OC)cc23)c1` [Compound 31, N-(3-(4-(3-Ethynylphenylamino)-6,7-dimethoxyquinazolin-2-ylamino)phenyl)-3-(trifluoromethyl)benzenesulfonamide] gave an IC50 of 1.95 µM.
`C#Cc1cccc(Nc2nc(Nc3cccc(NC(=O)c4ccccc4)c3)nc3cc(OC)c(OC)cc23)c1` [Compound 33, N-(3-(4-(3-ethynylphenylamino)-6,7-dimethoxyquinazolin-2-ylamino)phenyl)benzamide] was tested, and the IC50 was 2.65 µM.

The molecules below were run on Hep3B cell lines (assay: MTT assay, growth inhibition of Hep3B cells). Conditions: Homo sapiens.
Format: cell-based
Method: as §1
(§2) Next, compounds 19, and 34-36 were screened against a panel of Hep3B cell lines for growth-inhibitory activities. […] Compounds 87-90, 95 and 96 were screened against a panel of PLC5 cell lines for growth-inhibitory activities.
`C#Cc1cccc(Nc2nc(Nc3cccc(NCc4ccccc4)c3)nc3cc(OC)c(OC)cc23)c1` [Compound 34, N^2-(3-(benzylamino)phenyl)-N^4-(3-ethynylphenyl)-6,7-dimethoxyquinazoline-2,4-diamine] gave an IC50 of 3.35 µM.
For `C#Cc1cccc(Nc2nc(Nc3cccc(NC(=O)c4cc(C(F)(F)F)cc(C(F)(F)F)c4)c3)nc3cc(OC)c(OC)cc23)c1` [Compound 35, N-(3-(4-(3-ethynylphenylamino)-6,7-dimethoxyquinazolin-2-ylamino)phenyl)-3,5-bis(trifluoromethyl)benzamide], the IC50 was 3.27 µM.
`C#Cc1cccc(Nc2nc(Nc3cccc(NC(=O)c4cccc(C(F)(F)F)c4)c3)nc3cc(OC)c(OC)cc23)c1` [Compound 36, N-(3-(4-(3-ethynylphenylamino)-6,7-dimethoxyquinazolin-2-ylamino)phenyl)-3-(trifluoromethyl)benzamide] showed an IC50 of 3.38 µM.

These molecules were tested on PLC5 cell lines (assay: MTT assay, growth inhibition of PLC5 cells). Conditions: PLC5, PLC5 cells.
Format: cell-based
Method: as §1, §2
`C#Cc1cccc(Nc2nc(Nc3ccc(Cl)c(Oc4ccc(C#N)cc4)c3)nc3cc(OC)c(OC)cc23)c1` [Compound 87, 4-(2-chloro-5-((4-((3-ethynylphenyl)amino)-6,7-dimethoxyquinazolin-2-yl)amino)phenoxy)benzonitrile] was tested, and the IC50 was 8.2 µM.
Molecule `C#Cc1cccc(Nc2nc(Nc3ccc(Cl)c(Oc4ccc(C#N)c(C)c4)c3)nc3cc(OC)c(OC)cc23)c1` [Compound 89, 4-(2-chloro-5-((4-((3-ethynylphenyl)amino)-6,7-dimethoxyquinazolin-2-yl)amino)phenoxy)-2-methylbenzonitrile] has an IC50 of 20.2 µM.
`C#Cc1cccc(Nc2nc(Nc3ccc(Oc4ccc(Cl)c(Cl)c4)cc3)nc3cc(OC)c(OC)cc23)c1` [Compound 90, N^2-(4-(3,4-dichlorophenoxyl)phenyl)-N^4-(3-ethynylphenyl)-6,7-dimethoxyquinazoline-2,4-diamine] gave an IC50 of 0.77 µM.
`C#Cc1cccc(Nc2nc(Nc3ccc(Oc4ccc(Cl)cc4)cc3)nc3cc(OC)c(OC)cc23)c1` [Compound 96, N^2-(4-(4-chlorophenoxyl)phenyl)-N^4-(3-ethynylphenyl)-6,7-dimethoxyquinazoline-2,4-diamine] showed an IC50 of 0.61 µM.
